Experimental data taken from patent publication US20100129915A1, “METHODS FOR INDUCING CARDIOMYOGENESIS” (priority 2006, published 2010).

Columns and labels:
Assay type in all cases: cell-based
Murine ES cells [1] = test: Beating embryoid bodies (EBs) from ES cells grown in suspension; conditions: for number of beating EBs at EB12: early treatment EB4-6, Wnt3a 150 ng/ml or Dkk1 500 ng/ml, untreated 10%; for EBs beating by EB 12: late treatment EB 7-9, Wnt3a 150 ng/ml or Dkk1 500 ng/ml, control EBs 13%
Method: (§1) ES cell culture and gene expression analysis. Murine ES cells were propagated undifferentiated in maintenance medium consisting of Glasgow MEM (Sigma G5154) supplemented with 10% fetal bovine serum (FBS, Hyclone SH30071.03), 1 mM β-mercaptoethanol (Sigma M7522), 2 mM L-glutamine (Gibco-BRL 25030-081), 1 mM sodium pyruvate (Gibco-BRL 11360-070), 0.1 mM minimum essential medium containing nonessential amino acids, and LIF-conditioned medium (1:1000). EBs were formed by culturing ES cells (6×10^5/well) for 3 days in ultra-low-attachment six-well plates (Costar 07200601) in differentiation medium (DM), which contained the same components as maintenance medium but had 20% FBS and no LIF. For early treatment, the medium was replaced with DM containing Wnt3a (150 ng/ml, R&D systems) or Dkk1 (500 ng/ml, R&D systems) at the start of day 4; on day 6, the medium was replaced with fresh DM. For late treatment, DM was replaced with Wnt3a- or Dkk1-containing DM at the start of day 7 and switched to fresh DM on day 9. Respective media were changed for early-, late-, and un-treated EBs every 3 days. EBs were monitored for beating from days 8-12. EBs were collected between days 3 and 12 at regular intervals. For gene expression analysis, total RNA was isolated, and real-time PCR was performed with the ABI Prism system (7900HT, Applied Biosystems). All samples were run in triplicate. Real-time PCR data were normalized and standardized with SDS2.2 software.
(§2) FIGS. 4A-E. Canonical Wnt signaling regulates cardiac induction and differentiation in ES cells. a, Brachyury expression profiles, determined by quantitative real-time PCR (qPCR), of undifferentiated ES cells on day 0 and EBs harvested on days 3, 6, and 9 after early Wnt3a or Dkk-1 treatment compared to control. b, Beating EBs grown in suspension were counted from days 8-12. Percentage of beating EBs after early (days 4-6) or late (days 7-9) treatment with Wnt3a (left) or Dkk-1 (right). Asterisks indicate significant difference in beating percentage of treatment groups versus untreated EBs (P<0.01). c, d Immunohistochemistry of day 12 EBs with anti-Islet1 (c) or anti-Tropomyosin (d). e, Cardiac gene expression after early (days 4-6, top) or late (days 7-9, bottom) treatment with Wnt3a or Dkk-1. EBs were harvested on days 3, 6 and 9 (early treatment) or days 6, 9, and 12 (late treatment). Fold change in expression of all indicated genes (y-axis) in EBs with respect to undifferentiated ES cells was assessed by qPCR. NS, not significant. *P<0.01.

Murine ES cells [2] = test: Mesoderm and cardiac gene expression in EBs by quantitative real-time PCR; conditions: qPCR; for Bry (Brachyury) expression: early treatment after EB3, compared to control; for expression of early cardiac gene Nkx2.5 / expression of early cardiac gene Tbx5: exposure from EB4-6 (early treatment); for expression of early and late cardiac markers (cardiac gene expression): late treatment EB 7-9
Method: as §1, §2

Murine ES cells [3] = test: Immunohistochemistry of day 12 EBs with anti-Islet1 or anti-Tropomyosin; conditions: for number of Isl1-positive cells in EBs: anti-Islet1 immunohistochemistry; for number of Tropomyosin-positive cells in EBs: anti-Tropomyosin immunohistochemistry
Method: Immunohistochemistry and in situ hybridization. Whole or cryosectioned embryos and EBs were stained with the following antibodies: mouse anti-Islet1 (1:200) and anti-tropomyosin (1:100) (DSHB), goat anti-Wnt8a (15 μg/ml, R&D Systems), goat anti-β-catenin (1:50) and rat anti-cyclin D2 (1:100) (Santa Cruz Biotechnology), rabbit anti-phospho-Histone H3 (1:100, Upstate), and horseradish peroxidase-conjugated (with TSA plus Fluorescent Systems, PerkinElmer) secondary antibodies (The Jackson Laboratory). mRNA in situ hybridization was performed with designated antisense probes as described. Srivastava et al Science 270, 1995-9 (1995).
as §1
FIGS. 4A-E. Canonical Wnt signaling regulates cardiac induction and differentiation in ES cells. a, Brachyury expression profiles, determined by quantitative real-time PCR (qPCR), of undifferentiated ES cells on day 0 and EBs harvested on days 3, 6, and 9 after early Wnt3a or Dkk-1 treatment compared to control. b, Beating EBs grown in suspension were counted from days 8-12. Percentage of beating EBs after early (days 4-6) or late (days 7-9) treatment with Wnt3a (left) or Dkk-1 (right). […] Fold change in expression of all indicated genes (y-axis) in EBs with respect to undifferentiated ES cells was assessed by qPCR. […]

[4] = test system: human embryonic stem (ES) cells (H9); test: Beating of differentiating human ES cells treated with Wnt-3a
Method: Differentiating human embryonic stem (ES) cells (H9) were treated with Wnt-3a. […] Thus, canonical Wnt promotes human ES cells to differentiate into cardiomyocytes.

Substance | number of beating EBs at EB12 (Murine ES cells [1]) | EBs beating by EB 12 (Murine ES cells [1]) | Bry (Brachyury) expression (Murine ES cells [2]) | expression of early cardiac gene Nkx2.5 (Murine ES cells [2]) | expression of early cardiac gene Tbx5 (Murine ES cells [2]) | expression of early and late cardiac markers (cardiac gene expression) (Murine ES cells [2]) | number of Isl1-positive cells in EBs (Murine ES cells [3]) | number of Tropomyosin-positive cells in EBs (Murine ES cells [3]) | number of beating hES cells [4]
Dkk1 | complete absence of beating EBs | Approximately 10% | unaltered | downregulated | downregulated | not changed | decreased | decreased | 
Wnt3a | over 50% | ~50% | unaltered | upregulated | upregulated | upregulated | increased | increased | significantly increased
